# Data: ChEMBL document CHEMBL1201862, “PubChem BioAssay data set” (2004)
# Calls of active or inactive are those of the source.
# Assays:
# Prothrombin = Prothrombin (Homo sapiens, UniProt P00734); test: Thrombin 1536 HTS Dose Response Confirmation. [Related pubchem assays: 1046 (Thrombin 1536 HTS; hits were confirmed in this assay)]; assay type: functional
# Nonstructural protein 1 = Nonstructural protein 1 (Influenza A virus, UniProt Q194T2); assay type: functional, Influenza A virus (A/California/07/2009(H1N1))
# [1] = molecular target: Voltage-dependent T-type calcium channel subunit alpha-1H (Homo sapiens, UniProt O95180); assay type: functional;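 further: channel activity triggered by adding a high calcium stimulation buffer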
# [2] = Luminescence Cell-Based Dose Retest to Confirm Inhibitors of Cancer Stem Cells. [Related pubchem assays (depositor defined):AID2717, AID2721]; assay type: functional; details: Homo sapiens
# Phospholipase A2 = Phospholipase A2 (Homo sapiens, UniProt P04054); assay type: functional;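 further: confirmatory dose-response counterscreen on phospholipase A2, testing hits that came from an ultra-high-throughput screen for ATG4B inhibitors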
# INS1 = test: INS-1E survival protection against cytokine death – cell-based, luminescence, retest, dose response (AID 449756); assay type: functional; details: Rattus norvegicus;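 further: cell death triggered by IL-1 beta plus TNF-alpha plus IFN-gamma mixture; protective hits raise ATP signal compared with cytokine alone wells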
# Cysteine protease ATG4B = molecular target: T1, Cysteine protease ATG4B (Homo sapiens, UniProt Q9Y4P1); assay type: functional;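 further: Fluorescence-based dose-response confirmation assay measuring inhibition of ATG4B activity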
# T1 sequence (Q9Y4P1 whole entry): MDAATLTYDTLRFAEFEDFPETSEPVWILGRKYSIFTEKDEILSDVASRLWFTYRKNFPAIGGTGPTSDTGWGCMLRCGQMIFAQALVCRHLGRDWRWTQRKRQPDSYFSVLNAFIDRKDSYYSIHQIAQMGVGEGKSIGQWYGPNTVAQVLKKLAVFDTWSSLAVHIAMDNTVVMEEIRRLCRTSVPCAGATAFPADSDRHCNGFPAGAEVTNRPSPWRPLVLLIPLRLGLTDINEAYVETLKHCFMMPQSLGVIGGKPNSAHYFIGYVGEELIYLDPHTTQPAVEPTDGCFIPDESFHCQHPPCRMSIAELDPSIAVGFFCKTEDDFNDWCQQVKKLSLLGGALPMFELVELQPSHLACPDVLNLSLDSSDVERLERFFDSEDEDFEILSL
# HEK293 = test: EBV LMP1 TES2 canonical NF-kB signalling blockers – cell-based, HEK293, luciferase, cherry-pick, dose response (AID 588343); assay type: functional; details: Homo sapiens
# [3] = molecular target: T2, Replicative DNA helicase DnaB (Mycobacterium tuberculosis, UniProt P9WMR3); test: DnaB intein splicing inhibitors, dose response, biochemical, cell-free fluorescence (AID 449749); assay type: functional
# T2 sequence (P9WMR3 whole entry): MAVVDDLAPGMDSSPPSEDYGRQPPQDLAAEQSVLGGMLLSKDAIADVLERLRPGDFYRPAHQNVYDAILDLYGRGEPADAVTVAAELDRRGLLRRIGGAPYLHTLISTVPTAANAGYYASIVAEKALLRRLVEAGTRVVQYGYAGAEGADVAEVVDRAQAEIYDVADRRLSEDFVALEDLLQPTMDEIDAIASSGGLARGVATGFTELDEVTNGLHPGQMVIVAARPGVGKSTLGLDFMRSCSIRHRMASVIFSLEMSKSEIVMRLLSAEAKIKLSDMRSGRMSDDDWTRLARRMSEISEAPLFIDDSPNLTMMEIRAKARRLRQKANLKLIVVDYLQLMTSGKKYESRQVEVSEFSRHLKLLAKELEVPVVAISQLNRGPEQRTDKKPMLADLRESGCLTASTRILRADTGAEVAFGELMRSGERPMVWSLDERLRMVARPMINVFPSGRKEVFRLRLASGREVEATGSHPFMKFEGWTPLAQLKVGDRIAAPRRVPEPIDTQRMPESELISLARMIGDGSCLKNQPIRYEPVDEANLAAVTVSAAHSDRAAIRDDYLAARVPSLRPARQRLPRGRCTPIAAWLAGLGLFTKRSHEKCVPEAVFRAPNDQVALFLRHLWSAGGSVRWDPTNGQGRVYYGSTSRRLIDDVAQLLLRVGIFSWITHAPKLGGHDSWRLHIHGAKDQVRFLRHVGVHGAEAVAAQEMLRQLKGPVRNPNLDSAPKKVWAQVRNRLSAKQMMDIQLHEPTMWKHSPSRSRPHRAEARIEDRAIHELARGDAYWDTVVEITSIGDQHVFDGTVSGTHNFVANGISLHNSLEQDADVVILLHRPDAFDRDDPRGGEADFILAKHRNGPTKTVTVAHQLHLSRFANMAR
# Protein RecA = molecular target: T3, Protein RecA (Mycobacterium tuberculosis, UniProt P9WHJ3); test: Fluorescence Cell-Free Homogeneous Dose Retest to Identify Inhibitors of RecA-Intein Splicing Activity. [Related pubchem assays (depositor defined):AID2097, AID2223, AID489010, AID492950]; assay type: functional
# T3 sequence (P9WHJ3 whole entry): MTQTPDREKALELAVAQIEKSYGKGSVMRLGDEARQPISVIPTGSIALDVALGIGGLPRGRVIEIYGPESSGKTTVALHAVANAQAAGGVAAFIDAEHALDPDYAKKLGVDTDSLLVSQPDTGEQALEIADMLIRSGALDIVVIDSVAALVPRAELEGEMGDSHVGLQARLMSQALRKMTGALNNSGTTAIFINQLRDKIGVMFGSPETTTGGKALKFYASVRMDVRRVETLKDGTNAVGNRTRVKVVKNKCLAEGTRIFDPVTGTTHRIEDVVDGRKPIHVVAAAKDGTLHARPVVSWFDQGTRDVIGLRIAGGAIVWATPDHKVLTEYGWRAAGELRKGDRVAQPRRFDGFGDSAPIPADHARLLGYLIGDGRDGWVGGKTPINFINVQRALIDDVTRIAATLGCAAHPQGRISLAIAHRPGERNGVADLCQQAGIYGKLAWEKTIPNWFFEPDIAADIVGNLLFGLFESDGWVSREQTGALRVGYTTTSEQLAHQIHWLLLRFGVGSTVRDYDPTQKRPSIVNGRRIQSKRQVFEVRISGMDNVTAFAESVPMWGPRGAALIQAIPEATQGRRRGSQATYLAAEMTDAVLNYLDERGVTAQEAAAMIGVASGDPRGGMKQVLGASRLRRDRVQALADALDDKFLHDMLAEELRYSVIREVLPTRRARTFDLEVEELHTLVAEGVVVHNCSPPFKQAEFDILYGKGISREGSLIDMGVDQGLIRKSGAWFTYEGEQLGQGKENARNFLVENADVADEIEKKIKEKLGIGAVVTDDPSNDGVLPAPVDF
# [4] = tested on: Streptococcus sp. 'group A'; test: Streptococcus pyogenes SK(-)GAS viability under kanamycin – luminescence, BacTiterGlo, confirmation, counter-screen for streptokinase expression inhibitor project, dose response (AID 1900); assay type: functional, organism-based
# [5] = Trypanosoma cruzi growth suppression in host cells – NIH3T3 host cells, beta-gal luminescence, confirmation (AID 2044); assay type: functional, cell-based;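 further: intracellular parasites grown in NIH/3T3 mouse fibroblasts as host cells; luminescent beta-galactosidase reporter signal from transgenic T. cruzi replicating inside host cells; inhibitors lower the luminescence signal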
# Streptococcus = test: GAS UMAA2166 growth inhibition – luminescence, BacTiterGlo, counter-screen for streptokinase expression inhibitor project, dose response (AID 1915); assay type: functional, organism-based;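 further: potency for reduction of bacterial viability or growth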
# [6] = NIH3T3 cell viability loss – ATP luminescence, mouse fibroblasts, counter-screen, dose response (AID 2010); assay type: functional, cell-based;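 further: cells exposed to compound for about 90 hours before reading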
# Streptokinase A = molecular target: T4, Streptokinase A (Streptococcus pyogenes serotype M1, UniProt P10520); test: viability-normalized secreted streptokinase activity reduction – plasminogen activation absorbance, OD405, dose response (AID 1914); assay type: functional, Streptococcus pyogenes M1 GAS;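 further: secreted streptokinase activity via plasminogen activation per viability signal from cell pellet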
# T4 sequence (P10520 whole entry): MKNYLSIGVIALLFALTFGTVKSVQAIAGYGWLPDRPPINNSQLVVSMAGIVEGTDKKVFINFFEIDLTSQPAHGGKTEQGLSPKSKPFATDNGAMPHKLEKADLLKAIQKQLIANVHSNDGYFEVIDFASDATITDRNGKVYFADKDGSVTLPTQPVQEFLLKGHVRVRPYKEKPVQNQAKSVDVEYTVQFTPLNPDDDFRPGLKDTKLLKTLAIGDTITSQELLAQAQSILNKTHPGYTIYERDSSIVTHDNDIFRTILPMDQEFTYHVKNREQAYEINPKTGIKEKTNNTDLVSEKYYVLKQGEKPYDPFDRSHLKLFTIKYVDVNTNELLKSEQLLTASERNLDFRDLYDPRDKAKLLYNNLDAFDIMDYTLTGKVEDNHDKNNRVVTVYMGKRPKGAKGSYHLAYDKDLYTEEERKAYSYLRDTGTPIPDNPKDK
# [7] = molecular target: T5, Rac GTPase-activating protein 1 (Homo sapiens, UniProt Q9H0H5); test: blockers of MgcRacGAP-driven Rac1 GTP hydrolysis – biochemical, ADP Hunter fluorescence, primary and confirmatory, confirmation (AID 624330); assay type: functional
# T5 sequence (Q9H0H5 whole entry): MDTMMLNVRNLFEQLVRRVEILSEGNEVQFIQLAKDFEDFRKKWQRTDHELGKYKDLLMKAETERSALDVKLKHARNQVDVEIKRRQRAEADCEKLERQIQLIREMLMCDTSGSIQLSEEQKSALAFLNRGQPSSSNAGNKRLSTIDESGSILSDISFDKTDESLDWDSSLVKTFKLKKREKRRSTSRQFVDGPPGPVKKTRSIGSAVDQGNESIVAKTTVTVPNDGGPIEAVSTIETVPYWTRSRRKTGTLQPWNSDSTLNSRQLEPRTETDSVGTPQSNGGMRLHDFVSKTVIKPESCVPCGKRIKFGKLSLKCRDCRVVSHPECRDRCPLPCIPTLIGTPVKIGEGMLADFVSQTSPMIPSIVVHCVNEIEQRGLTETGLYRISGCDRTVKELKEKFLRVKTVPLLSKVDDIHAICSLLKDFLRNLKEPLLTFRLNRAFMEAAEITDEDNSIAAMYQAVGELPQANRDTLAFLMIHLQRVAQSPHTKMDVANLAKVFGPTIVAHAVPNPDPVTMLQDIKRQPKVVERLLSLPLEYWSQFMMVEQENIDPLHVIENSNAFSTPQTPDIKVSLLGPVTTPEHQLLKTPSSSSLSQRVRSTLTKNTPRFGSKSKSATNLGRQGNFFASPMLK
# [8] = viability loss in HeLa cells – cytotoxicity control for MgcRacGAP inhibitor project, dose response (AID 624300); assay type: functional
# [9] = NIH-3T3 fibroblast cytotoxicity, dose response, cytotoxicity control, cell-based, fluorescence, Alamar Blue, secondary assay (AID 2327); assay type: functional;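 further: NIH-3T3 mouse fibroblasts cultured with fluconazole at 8 µg/mL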
# [10] = fluconazole-exposed Candida albicans growth modulators – fluorescence, retest, confirmation (AID 2467); assay type: functional, cell-based
# [11] = viability of HCT116 lacking mutant beta-catenin – cell-based, human colon tumor, dose response (AID 1045); assay type: functional;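 further: HCT116 colon tumor cells with beta catenin knocked out; cells exposed to compound for 60 hours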
# [12] = viability of PTEN-deleted HCT116 cells – cell-based, HCT116 PTEN knockout, dose response (AID 1047); assay type: functional;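 further: HCT116 colon tumor cells with PTEN knocked out; cells exposed to compound for 60 hours before readout; potency for loss of cell viability measured by luminescence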
# Phospholipase A2, sequence (P04054 whole entry): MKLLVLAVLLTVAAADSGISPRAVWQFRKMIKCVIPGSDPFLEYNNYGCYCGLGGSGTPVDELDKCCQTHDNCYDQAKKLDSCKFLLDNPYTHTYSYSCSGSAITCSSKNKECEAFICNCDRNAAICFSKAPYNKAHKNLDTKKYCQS
# Voltage-dependent T-type calcium channel subunit alpha-1H, sequence (O95180 whole entry): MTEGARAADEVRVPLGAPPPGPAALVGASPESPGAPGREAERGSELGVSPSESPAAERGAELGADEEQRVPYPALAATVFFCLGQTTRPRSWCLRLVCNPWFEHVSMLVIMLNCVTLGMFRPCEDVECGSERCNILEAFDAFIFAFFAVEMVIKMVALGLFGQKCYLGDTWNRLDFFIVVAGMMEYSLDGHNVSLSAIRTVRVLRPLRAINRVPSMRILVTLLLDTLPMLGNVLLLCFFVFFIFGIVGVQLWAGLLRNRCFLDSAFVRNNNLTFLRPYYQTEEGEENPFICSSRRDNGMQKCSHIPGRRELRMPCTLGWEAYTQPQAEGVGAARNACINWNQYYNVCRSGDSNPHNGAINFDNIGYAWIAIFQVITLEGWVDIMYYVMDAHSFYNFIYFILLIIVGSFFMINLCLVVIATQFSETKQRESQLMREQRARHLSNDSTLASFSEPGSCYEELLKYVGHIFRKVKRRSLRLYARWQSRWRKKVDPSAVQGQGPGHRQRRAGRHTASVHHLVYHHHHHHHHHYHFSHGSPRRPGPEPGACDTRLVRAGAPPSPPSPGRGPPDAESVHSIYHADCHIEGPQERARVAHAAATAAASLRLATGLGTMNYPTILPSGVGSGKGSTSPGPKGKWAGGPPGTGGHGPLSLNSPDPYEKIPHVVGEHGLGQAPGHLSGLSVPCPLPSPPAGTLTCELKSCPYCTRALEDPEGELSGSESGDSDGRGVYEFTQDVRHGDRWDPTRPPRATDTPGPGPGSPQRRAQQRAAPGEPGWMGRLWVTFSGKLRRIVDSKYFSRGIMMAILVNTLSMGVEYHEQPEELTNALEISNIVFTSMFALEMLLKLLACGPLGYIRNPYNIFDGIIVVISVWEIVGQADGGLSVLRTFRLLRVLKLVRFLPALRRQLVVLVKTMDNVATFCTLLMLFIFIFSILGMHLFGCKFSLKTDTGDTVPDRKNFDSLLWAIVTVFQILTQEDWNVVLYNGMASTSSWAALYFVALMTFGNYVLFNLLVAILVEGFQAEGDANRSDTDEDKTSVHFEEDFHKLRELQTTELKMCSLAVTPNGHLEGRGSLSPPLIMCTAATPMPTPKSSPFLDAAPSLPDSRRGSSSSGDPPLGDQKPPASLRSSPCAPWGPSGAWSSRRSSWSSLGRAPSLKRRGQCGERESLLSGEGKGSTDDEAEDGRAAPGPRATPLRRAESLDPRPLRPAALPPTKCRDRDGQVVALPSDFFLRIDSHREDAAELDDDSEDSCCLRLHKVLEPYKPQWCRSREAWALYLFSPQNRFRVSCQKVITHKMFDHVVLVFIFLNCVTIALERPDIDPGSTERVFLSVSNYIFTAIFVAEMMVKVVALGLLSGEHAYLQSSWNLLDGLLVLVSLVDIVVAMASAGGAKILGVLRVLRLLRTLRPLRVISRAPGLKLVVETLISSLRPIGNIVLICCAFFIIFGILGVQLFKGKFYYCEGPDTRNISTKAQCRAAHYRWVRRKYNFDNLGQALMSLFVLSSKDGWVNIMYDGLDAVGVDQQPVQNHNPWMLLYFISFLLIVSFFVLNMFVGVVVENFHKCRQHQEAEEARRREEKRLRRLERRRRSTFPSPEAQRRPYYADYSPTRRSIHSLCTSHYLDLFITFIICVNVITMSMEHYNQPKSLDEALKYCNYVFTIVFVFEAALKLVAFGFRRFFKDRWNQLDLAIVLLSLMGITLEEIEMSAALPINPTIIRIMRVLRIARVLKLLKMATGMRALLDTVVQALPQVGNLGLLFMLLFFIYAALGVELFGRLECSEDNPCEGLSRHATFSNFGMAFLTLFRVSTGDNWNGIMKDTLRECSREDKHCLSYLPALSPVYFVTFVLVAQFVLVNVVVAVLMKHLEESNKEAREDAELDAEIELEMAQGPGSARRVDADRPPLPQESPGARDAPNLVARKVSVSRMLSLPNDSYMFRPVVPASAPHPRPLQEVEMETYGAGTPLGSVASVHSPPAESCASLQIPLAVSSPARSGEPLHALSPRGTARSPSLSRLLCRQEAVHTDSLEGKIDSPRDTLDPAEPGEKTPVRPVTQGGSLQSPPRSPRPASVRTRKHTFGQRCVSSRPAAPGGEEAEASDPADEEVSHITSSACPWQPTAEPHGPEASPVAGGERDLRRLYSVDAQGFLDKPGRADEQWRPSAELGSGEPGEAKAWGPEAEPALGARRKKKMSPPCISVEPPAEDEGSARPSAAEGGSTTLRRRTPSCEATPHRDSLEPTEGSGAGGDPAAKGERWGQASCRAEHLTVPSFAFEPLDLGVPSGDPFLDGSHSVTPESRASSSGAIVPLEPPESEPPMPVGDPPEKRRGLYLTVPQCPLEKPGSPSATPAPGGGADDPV
# Nonstructural protein 1, sequence (Q194T2 whole entry): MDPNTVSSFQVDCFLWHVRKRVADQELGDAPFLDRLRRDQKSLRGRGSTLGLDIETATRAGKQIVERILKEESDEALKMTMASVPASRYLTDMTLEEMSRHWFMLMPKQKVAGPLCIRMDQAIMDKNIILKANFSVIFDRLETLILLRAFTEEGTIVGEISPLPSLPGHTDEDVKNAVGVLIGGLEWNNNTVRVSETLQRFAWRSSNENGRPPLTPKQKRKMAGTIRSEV
compound,measurement,setting,value
O=C1C=C(O)c2c(O)cccc2C1=O,IC50,Prothrombin,> 50 µM (not active)
Clc1ccc(-c2cnnc(-c3ccccn3)n2)cc1,IC50,Nonstructural protein 1,14.2 µM (active)
O=C(CCC1COc2ccccc2O1)Nc1ccc(Cl)cn1 (stereo not given),EC50,[1],2.94 µM (active)
CCC1=NN(C(=O)c2cccc(Br)c2)C(O)(c2ccc(Br)cc2)C1 (stereo not given),AC50,[2],634 nM (active)
same,IC50,Phospholipase A2,8.71 µM (active)
same,AC50,INS1,4.84 µM (active)
same,IC50,Cysteine protease ATG4B,12.1 µM (active)
Cc1ccc(-c2nnn(CC(=O)N(c3ccccc3F)C(CC(C)C)C(=O)NCC3CCCO3)n2)cc1 (stereo not given),EC50,[1],5.3 µM (active)
COc1ccc(/C=C2\SC(=O)N(CCCC(=O)Nc3ccc(C(=O)O)cc3)C2=O)cc1,AC50,HEK293,2.37 µM (active)
CN(C)Cc1ccc(F)cc1Sc1cc(Cl)ccc1Cl,IC50,Phospholipase A2,16.4 µM (active)
same,IC50,Cysteine protease ATG4B,16.9 µM (active)
COc1cccc(C(=O)Nc2n[nH]c(SCc3ccc(Cl)cc3)n2)c1,AC50,[3],2.78 µM (active)
same,EC50,Protein RecA,1.29 µM (active)
same,IC50,Prothrombin,2.94 µM (active)
S=C(NCC1CCCCC1)Nc1ccc(Oc2ccccc2)cc1,AC50,HEK293,170 µM (active)
same,EC50,[4],10.9 µM (active)
same,EC50,[5],2.05 µM (active)
same,EC50,Streptococcus,24.3 µM (active)
same,EC50,[6],> 60 µM (not active)
same,EC50,Streptokinase A,4.05 µM (active)
same,AC50,[2],4580 nM (active)
Cc1ccc(C(=O)O)cc1/N=C/c1cc(Br)cc(Br)c1O,IC50,Phospholipase A2,18 µM (active)
same,IC50,Cysteine protease ATG4B,9.89 µM (active)
CCOc1cc(CNc2ccc(N3CCCCC3)cc2)cc(Br)c1OCC(=O)NC(C)(C)C,EC50,[5],1.46 µM (active)
same,EC50,[6],> 60 µM (inconclusive)
same,IC50,[7],20.8 µM (active)
same,CC50,[8],100 µM (active)
NC(=O)CSc1nc2cc([N+](=O)[O-])ccc2[nH]1,IC50,Phospholipase A2,9.62 µM (active)
same,IC50,Cysteine protease ATG4B,12.4 µM (active)
CCCc1c(C(=O)N/N=C(\C)c2ccccn2)nnn1-c1nonc1N,AC50,HEK293,9.69 µM (active)
C=CCn1c(O)c(N=NC(S)=Nc2ccccc2C)c2cc(S(=O)(=O)N3CCOCC3)ccc21,AC50,HEK293,2.93 µM (active)
same,EC50,[9],20.4 µM (inconclusive)
same,EC50,[10],2.06 µM (active)
O=C(Nc1nc(-c2cccs2)cs1)c1ccco1,IC50,Prothrombin,> 50 µM (not active)
O=C(Nc1cc(C(F)(F)F)cc(C(F)(F)F)c1)c1ccc(Cn2cc(C(F)(F)F)ccc2=O)cc1,EC50,[1],5.74 µM (active)
O=C(Nc1nc2ccccc2s1)C1CCCN1S(=O)(=O)c1ccc(Cl)cc1 (stereo not given),EC50,[1],5.86 µM (active)
Cc1nc(SCC(=O)c2cc3ccccc3oc2=O)c(C#N)c(-c2ccccc2)c1C(=O)Nc1ccccc1,EC50,[11],7.01 µM (active)
same,EC50,[12],8.4 µM (active)
COc1ccc(CNc2nc(-c3cccnc3)nn2C(C)=O)cc1,IC50,Prothrombin,0.0252 µM (active)
CCCC(=O)n1nc(-c2ccc(Cl)cc2)nc1SC,IC50,Prothrombin,3.57 µM (active)
CC(=O)c1ccc(O)c(CSC2=NCCS2)c1,IC50,Prothrombin,> 50 µM (not active)
O=[N+]([O-])c1nn(-c2ccc3c(c2)OCCO3)[n+]([O-])c1NC1CCCCCC1,EC50,[5],0.681 µM (active)
same,EC50,[6],> 30 µM (not active)
same,IC50,Nonstructural protein 1,44.6 µM (active)
COc1ccc(C(C(O)C(=O)c2c[nH]c3ccccc23)N2CCN(c3ccccc3)CC2)cc1 (stereo not given),EC50,[1],8.16 µM (active)
